Assay [1] has as its target T1, F508delCFTR (Homo sapiens, UniProt P13569, DEL508-508).
T1 construct: expressed in transfected cells; host or cells: CFBE41o- human lung-derived epithelial cells (CFBE41o-F508delCFTR-HRP), doxycycline-inducible
As to the kind of experiment: Cell Surface Expression-Horse Radish Peroxidase (CSE-HRP) assay, test compound with co-corrector.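 As to Maximum % activity (with co-corrector): percent of 2 µM positive control corrector over DMSO; co-corrector is that same compound.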 The conditions noted are these: with 2 μM co-corrector; for Maximum % activity (with co-corrector): maximum at any tested concentration, normalized to positive control. The format is cell-based. The method, then:
(§1) Cell Surface Expression-Horse Radish Peroxidase (CSE-HRP) Assay
(§2) A cellular assay for measuring the F508delCFTR cell surface expression after correction with test compounds either without or with a co-corrector (2 μM of 3-[(2R,4R)-4-({[1-(2,2-difluoro-1,3-benzodioxol-5-yl)cyclopropyl]carbonyl}amino)-7-methoxy-3,4-dihydro-2H-chromen-2-yl]benzoic acid), was developed in human lung derived epithelial cell line (CFBE41o-) (Veit G et al, (2012) Mol Biol Cell. 23(21): 4188-4202). The development was achieved by expressing the F508delCFTR mutation along with a horseradish peroxidase (HRP) in the fourth exofacial loop, and then measuring the HRP activity using luminescence readout from these cells, CFBE41o-F508delCFTR-HRP, that were incubated overnight with the test corrector compounds, either without or with the co-corrector. For this primary assay, the CFBE41o-F508delCFTR-HRP cells were plated in 384-well plates (Greiner Bio-one; Cat 781080) at 4,000 cells/well along with 0.5 μg/mL doxycycline to induce the F508delCFTR-HRP expression and further incubated at 37° C., 5% CO2 for 72 hours. The test compounds were then added either without or with a co-corrector at the required concentrations and further incubated for 18-24 hours at 33° C. The highest concentration tested was 20 μM with an 8-point concentration response curve using a 3-fold dilution in both the test compound without or with the co-corrector. Three replicate plates were run to determine one EC50. All plates contained negative controls (dimethyl sulfoxide, DMSO) and positive control (2 μM of 3-[(2R,4R)-4-({[1-(2,2-difluoro-1,3-benzodioxol-5-yl)cyclopropyl]carbonyl}amino)-7-methoxy-3,4-dihydro-2H-chromen-2-yl]benzoic acid) as well as on-plate concentration response of the positive control. Post incubation, the plates were washed 5× times with Dulbecco's phosphate buffered saline (DPBS), followed by the addition of the HRP substrate, luminol (50 μL), and measuring the HRP activity using luminescence readout on EnVision® Multilabel Plate Reader (Perkin Elmer; product number 2104-0010). The raw counts from the experiment were analyzed using Accelrys® Assay Explorer v3.3.
(§3) Z′ greater than 0.5 was used as passing quality control criteria for the plates.
(§4) 1−[3*SDPositive Control+3*SDNegative Control/Absolute (MeanPositive Control−MeanNegative Control)]
(§5) wherein “SD” is standard deviation.
(§6) The % activity measured at each of the 8 test concentrations of the test compound added either without or with a co-corrector (2 μM of 3-[(2R,4R)-4-({[1-(2,2-difluoro-1,3-benzodioxol-5-yl)cyclopropyl]carbonyl}amino)-7-methoxy-3,4-dihydro-2H-chromen-2-yl]benzoic acid) was normalized to the on-plate positive control using the following formulae:
activity (Test compound with co-corrector)=[(test compound with co-corrector response−DMSO response)/(positive control response−DMSO response)]*100
(§7) The maximum % activity achieved for the test compound either without or with a co-corrector at any tested concentration is presented in Table 1 along with the respective EC50's calculated using the following general sigmoidal curve with variable Hill slope equation (described as Model 42 in the Accelrys® Assay Explorer v3.3 software):
(§8) General sigmoidal curve with concentration, response, top, bottom, EC50 and Hill slope. This model describes a sigmoidal curve with an adjustable baseline, a. The equation can be used to fit curves where response is either increasing or decreasing with respect to the independent variable, “x”.
“x” is a concentration of drug under test. “y” is the response. “a” is the maximum response, and “d” is the minimum response “c” is the inflection point (EC50) for the curve. That is, “y” is halfway between the lower and upper asymptotes when x=c. “b” is the slope-factor or Hill coefficient. The sign of b is positive when the response increases with increasing dose and is negative when the response decreases with increasing dose (inhibition).

The target in assay [2] is T1, F508delCFTR. In words: Cell Surface Expression-Horse Radish Peroxidase (CSE-HRP) assay, test compound without co-corrector.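 As to Emax: percent of on-plate 2 µM positive control corrector response over DMSO.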 The note with it: for Emax: maximum at any tested concentration, normalized to positive control, without co-corrector; for EC50: test compound without co-corrector. The format is cell-based. The method, then: as §1, §2, §3, §4, §5, §6
% activity (Test compound without co-corrector)=[(test compound without co-corrector response−DMSO response)/(positive control response−DMSO response)]*100%
as §7, §8
“x” is a concentration of drug under test. “y” is the response. “a” is the maximum response, and “d” is the minimum response “c” is the inflection point (EC50) for the curve. That is, “y” is halfway between the lower and upper asymptotes when x=c. “b” is the slope-factor or Hill coefficient. The sign of b is positive when the response increases with increasing dose and is negative when the response decreases with increasing dose (inhibition). The data is presented with the qualifiers shown below: […]

Experimental findings from patent publication US20180244611A1, “Modulators of the Cystic Fibrosis Transmembrane Conductance Regulator Protein and Methods of Use” (AbbVie S.à.r.l., priority 2017, published 2018) are described below.

By EC50 is commonly meant the concentration giving half of the maximal effect. The term Emax denotes the size of the effect at its maximum, as opposed to the concentration needed.

T1 sequence (P13569 with tags, fused parts or gaps DEL508-508): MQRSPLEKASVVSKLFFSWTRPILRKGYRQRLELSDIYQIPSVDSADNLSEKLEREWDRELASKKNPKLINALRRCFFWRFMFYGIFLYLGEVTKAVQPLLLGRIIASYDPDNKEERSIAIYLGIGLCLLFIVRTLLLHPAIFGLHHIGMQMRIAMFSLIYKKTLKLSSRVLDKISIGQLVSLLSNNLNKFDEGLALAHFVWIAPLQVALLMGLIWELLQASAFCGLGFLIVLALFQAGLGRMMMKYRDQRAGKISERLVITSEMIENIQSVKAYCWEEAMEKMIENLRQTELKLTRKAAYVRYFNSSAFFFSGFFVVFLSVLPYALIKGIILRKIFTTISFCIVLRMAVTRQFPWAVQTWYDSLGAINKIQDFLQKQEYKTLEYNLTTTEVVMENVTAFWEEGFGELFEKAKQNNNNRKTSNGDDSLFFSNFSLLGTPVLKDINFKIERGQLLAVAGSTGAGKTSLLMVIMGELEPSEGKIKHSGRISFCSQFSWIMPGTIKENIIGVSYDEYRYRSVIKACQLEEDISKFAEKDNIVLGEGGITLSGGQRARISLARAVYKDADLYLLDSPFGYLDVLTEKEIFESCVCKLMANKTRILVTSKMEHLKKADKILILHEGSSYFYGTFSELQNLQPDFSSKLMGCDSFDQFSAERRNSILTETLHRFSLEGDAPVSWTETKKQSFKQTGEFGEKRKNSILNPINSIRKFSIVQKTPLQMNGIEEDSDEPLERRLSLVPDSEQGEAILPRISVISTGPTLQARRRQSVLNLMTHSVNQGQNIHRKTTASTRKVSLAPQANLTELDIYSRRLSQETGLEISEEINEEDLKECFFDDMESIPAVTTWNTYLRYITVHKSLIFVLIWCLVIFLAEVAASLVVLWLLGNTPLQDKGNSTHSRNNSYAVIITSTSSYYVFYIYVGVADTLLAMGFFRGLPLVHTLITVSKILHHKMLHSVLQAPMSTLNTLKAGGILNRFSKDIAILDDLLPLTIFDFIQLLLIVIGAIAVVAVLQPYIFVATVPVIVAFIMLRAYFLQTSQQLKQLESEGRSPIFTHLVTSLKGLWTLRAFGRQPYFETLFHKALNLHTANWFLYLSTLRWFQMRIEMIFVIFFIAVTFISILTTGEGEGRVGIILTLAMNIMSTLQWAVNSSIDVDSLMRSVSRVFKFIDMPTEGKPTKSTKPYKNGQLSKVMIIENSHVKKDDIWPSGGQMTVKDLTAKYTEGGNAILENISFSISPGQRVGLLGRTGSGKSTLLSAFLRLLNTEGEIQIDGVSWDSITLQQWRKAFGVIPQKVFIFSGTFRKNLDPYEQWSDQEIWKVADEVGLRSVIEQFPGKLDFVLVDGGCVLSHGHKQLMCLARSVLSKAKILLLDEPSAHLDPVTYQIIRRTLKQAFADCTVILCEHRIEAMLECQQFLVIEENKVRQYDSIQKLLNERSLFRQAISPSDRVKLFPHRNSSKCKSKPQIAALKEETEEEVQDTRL

In the case of `COc1cccc2c1CC[C@@]2(C)C(=O)NS(=O)(=O)c1cccc2ccccc12` [Example I-6, (1R)-4-methoxy-1-methyl-N-(naphthalene-1-sulfonyl)-2,3-dihydro-1H-indene-1-carboxamide], on F508delCFTR [1], the “Maximum % activity (with co-corrector)” value was “+++ (≥350)” and the EC50 is 3 to 10 µM. At F508delCFTR [2], this compound displayed an Emax of at least 150% and an EC50 of 3 to 10 µM.

Turning to `CCC1(C(=O)NS(=O)(=O)c2cccc3ccccc23)CCc2c(Cl)cccc21` (centres unmarked) [Example I-7, 4-chloro-1-ethyl-N-(naphthalene-1-sulfonyl)-2,3-dihydro-1H-indene-1-carboxamide], at F508delCFTR [1], the “Maximum % activity (with co-corrector)” value is listed as “+++ (≥350)” and the EC50 was below 3 µM. At F508delCFTR [2], the Emax was at least 150% and the EC50 is below 3 µM.

Take `O=C(NS(=O)(=O)c1cccc2ccccc12)C1CCc2c(Cl)cccc21` (centres unmarked) [Example I-8, 4-chloro-N-(naphthalene-1-sulfonyl)-2,3-dihydro-1H-indene-1-carboxamide]: at F508delCFTR [1], the “Maximum % activity (with co-corrector)” value is “+++ (≥350)” and the EC50 was 3 to 10 µM. On F508delCFTR [2], this compound yielded a maximal effect (Emax) of at least 150% and an EC50 of 3 to 10 µM.

With `COc1cccc2c1CCCC2(Cc1ccccc1)C(=O)NS(=O)(=O)c1cccc2ccccc12` (centres unmarked) [Example I-9, 1-benzyl-5-methoxy-N-(naphthalene-1-sulfonyl)-1,2,3,4-tetrahydronaphthalene-1-carboxamide], on F508delCFTR [1], the “Maximum % activity (with co-corrector)” value is “+++ (≥350)” and the EC50 was below 3 µM. At F508delCFTR [2], the Emax was at least 150% and the concentration for a half-maximal effect (EC50) is below 3 µM.

For the compound `CCC1(C(=O)NS(=O)(=O)c2cccc3ccccc23)CCCc2c(OC)cccc21` (centres unmarked) [Example I-10, 1-ethyl-5-methoxy-N-(naphthalene-1-sulfonyl)-1,2,3,4-tetrahydronaphthalene-1-carboxamide], on F508delCFTR [1], the “Maximum % activity (with co-corrector)” value is “+++ (≥350)” and the EC50 is below 3 µM. At F508delCFTR [2], this compound showed an Emax of at least 150% and an EC50 of 3 to 10 µM.

As to `O=C(NS(=O)(=O)c1cccc2ccccc12)[C@@H]1CCCc2cccc(Cl)c21` [Example I-11, (1R)-8-chloro-N-(naphthalene-1-sulfonyl)-1,2,3,4-tetrahydronaphthalene-1-carboxamide], on F508delCFTR [1], the “Maximum % activity (with co-corrector)” value was “+++ (≥350)” and the EC50 is below 3 µM. Further, at F508delCFTR [2], the Emax was at least 150% and the EC50 was below 3 µM.

Turning to `O=C(NS(=O)(=O)c1cccc2ccccc12)[C@H]1CCCc2cccc(Cl)c21` [Example I-12, (1S)-8-chloro-N-(naphthalene-1-sulfonyl)-1,2,3,4-tetrahydronaphthalene-1-carboxamide], on F508delCFTR [1], the “Maximum % activity (with co-corrector)” value was “+++ (≥350)” and the EC50 was below 3 µM. In addition, on F508delCFTR [2], the Emax was at least 150% and the EC50 is 3 to 10 µM.

Turning to `CCC1(C(=O)NS(=O)(=O)c2cccc3c2OC(F)(F)O3)CCc2c(Cl)cccc21` (centres unmarked) [Example I-13, 4-chloro-N-(2,2-difluoro-2H-1,3-benzodioxole-4-sulfonyl)-1-ethyl-2,3-dihydro-1H-indene-1-carboxamide], at F508delCFTR [1], the “Maximum % activity (with co-corrector)” value was “++ (≥150 and <350)”; the concentration giving a half-maximal response (EC50) is below 3 µM. At F508delCFTR [2], this compound gave an Emax below 50% and a 50% effective concentration (EC50) of at least 10 µM.

With `CC1(C(=O)NS(=O)(=O)c2cccc3ccccc23)CCc2cccc(Cl)c21` (centres unmarked) [Example I-14, 7-chloro-1-methyl-N-(naphthalene-1-sulfonyl)-2,3-dihydro-1H-indene-1-carboxamide], at F508delCFTR [1], the “Maximum % activity (with co-corrector)” value is listed as “+++ (≥350)” and the EC50 is below 3 µM. At F508delCFTR [2], this compound registered an Emax of at least 150% and an EC50 below 3 µM.

On to `COc1ccc(Br)c2c1CCCC2C(=O)NS(=O)(=O)c1cccc2ccccc12` (centres unmarked) [Example I-15, 8-bromo-5-methoxy-N-(naphthalene-1-sulfonyl)-1,2,3,4-tetrahydronaphthalene-1-carboxamide], for which, on F508delCFTR [1], the “Maximum % activity (with co-corrector)” value is “+++ (≥350)” and the EC50 was below 3 µM. At F508delCFTR [2], this compound had a maximal effect (Emax) of at least 150% and an EC50 below 3 µM.

Consider `O=C(NS(=O)(=O)c1cccc2ccccc12)C1(CCN2CCC(F)(F)C2)CCc2c(Cl)cccc21` (centres unmarked) [Example I-16, 4-chloro-1-[2-(3,3-difluoropyrrolidin-1-yl)ethyl]-N-(naphthalene-1-sulfonyl)-2,3-dihydro-1H-indene-1-carboxamide], for which, at F508delCFTR [1], the “Maximum % activity (with co-corrector)” value is “+++ (≥350)” and the EC50 is below 3 µM. At F508delCFTR [2], this compound gave an Emax of 50 to 150% and an EC50 below 3 µM.

As for `CC[C@]1(C(=O)NS(=O)(=O)c2cccc3ccccc23)CCc2c(Cl)cccc21` [Example I-17, (1S)-4-chloro-1-ethyl-N-(naphthalene-1-sulfonyl)-2,3-dihydro-1H-indene-1-carboxamide], at F508delCFTR [1], the “Maximum % activity (with co-corrector)” value is reported as “+++ (≥350)” and the EC50 was below 3 µM. On F508delCFTR [2], the Emax is 50 to 150% and the EC50 was below 3 µM.

As for `CC[C@@]1(C(=O)NS(=O)(=O)c2cccc3ccccc23)CCc2c(Cl)cccc21` [Example I-18, (1R)-4-chloro-1-ethyl-N-(naphthalene-1-sulfonyl)-2,3-dihydro-1H-indene-1-carboxamide], on F508delCFTR [1], the “Maximum % activity (with co-corrector)” value is on record as “+++ (≥350)” and the concentration for a half-maximal effect (EC50) is below 3 µM. Further, on F508delCFTR [2], the maximal response (Emax) was at least 150% and the EC50 is below 3 µM.

Take `COc1ccc(Br)c2c1C(C(=O)NS(=O)(=O)c1cccc3ccccc13)CC2` (centres unmarked) [Example I-19, 4-bromo-7-methoxy-N-(naphthalene-1-sulfonyl)-2,3-dihydro-1H-indene-1-carboxamide]: at F508delCFTR [1], the “Maximum % activity (with co-corrector)” value is “+++ (≥350)” and the EC50 is below 3 µM. On F508delCFTR [2], the maximum response (Emax) was at least 150% and the EC50 was in the range of 3 to 10 µM.

Turning to `C[C@]1(C(=O)NS(=O)(=O)c2cccc3ccccc23)CCc2c1ccc1c2OCO1` [Example I-20, (6S)-6-methyl-N-(naphthalene-1-sulfonyl)-7,8-dihydro-2H,6H-indeno[4,5-d][1,3]dioxole-6-carboxamide], on F508delCFTR [1], the “Maximum % activity (with co-corrector)” value was “+++ (≥350)” and the EC50 lay within 3 to 10 µM. On F508delCFTR [2], this compound had an Emax of at least 150% and a concentration giving a half-maximal response (EC50) of 3 to 10 µM.

With `C[C@@]1(C(=O)NS(=O)(=O)c2cccc3ccccc23)CCc2c1ccc1c2OCO1` [Example I-21, (6R)-6-methyl-N-(naphthalene-1-sulfonyl)-7,8-dihydro-2H,6H-indeno[4,5-d][1,3]dioxole-6-carboxamide], at F508delCFTR [1], the “Maximum % activity (with co-corrector)” value is reported as “+++ (≥350)” and the EC50 fell in the range of 3 to 10 µM. At F508delCFTR [2], this compound registered a maximal effect (Emax) of at least 150% and an EC50 of 3 to 10 µM.

With `COc1ccc2c(c1)[C@@](C)(C(=O)NS(=O)(=O)c1cccc3ccccc13)CC2` [Example I-22, (1S)-6-methoxy-1-methyl-N-(naphthalene-1-sulfonyl)-2,3-dihydro-1H-indene-1-carboxamide], on F508delCFTR [1], the “Maximum % activity (with co-corrector)” value is “+++ (≥350)” and the EC50 is below 3 µM. At F508delCFTR [2], this compound displayed an Emax of at least 150% and an EC50 of 3 to 10 µM.
